Reference: ChEMBL document CHEMBL1129482, “Synthesis and anti-herpes virus activity of 2'-deoxy-4'-thiopyrimidine nucleosides” (J Med Chem, 1996)

Key:
Human betaherpesvirus 5 = assay: Inhibitory activity against human cytomegalovirus (HCMV) strain AD169 in MRC-5 cells.; format: functional, organism-based; conditions: Human betaherpesvirus 5, MRC5
Human alphaherpesvirus 1 = assay: Inhibitory activity against herpes simplex virus type 1 (HSV-1) strain SC16 in Vero cells.; format: functional, organism-based; conditions: Human alphaherpesvirus 1, Vero
[1] = Inhibitory activity against herpes simplex virus type 2 (HSV 2) strain 186 in Vero cells.; format: functional, cell-based
Human alphaherpesvirus 3 = assay: Inhibitory activity against varicella zoster virus (VZV) strain G31 in MRC-5 cells.; format: functional, organism-based; conditions: Human alphaherpesvirus 3, MRC5
Vero [2] = assay: Inhibitory dose required to reduce the growth of vero cells by 50% over a 4 day period.; format: functional, Chlorocebus sabaeus
Vero [3] = assay: Inhibitory activity against herpes simplex virus type 1 (HSV 1) strain SC16 was determined in Vero cells; Range is 0.17-0.5 uM; format: functional, cell-based; conditions: Chlorocebus sabaeus
Vero [4] = assay: Inhibitory activity against herpes simplex virus type 2 (HSV 2) strain 186 was determined in Vero cells; Range is 2-5 uM; format: functional, cell-based; conditions: Chlorocebus sabaeus
Vero [5] = assay: Inhibitory dose required to reduce the growth of Vero cells by 50% over a 4 day period; format: functional, Chlorocebus sabaeus
MRC5 = assay: Inhibitory activity against varicella zoster virus (VZV) strain G31 was determined in MRC-5 cells; Toxicity at 40 uM; format: functional, cell-based, Homo sapiens

SMILES | IC50 (Human betaherpesvirus 5) | IC50 (Human alphaherpesvirus 1) | IC50 [1] | IC50 (Human alphaherpesvirus 3) | CCID50 (Vero [2]) | IC50 (Vero [3]) | IC50 (Vero [4]) | CCID50 (Vero [5]) | IC50 (MRC5)
Nc1nc(O)c2ncn(CCC(CO)CO)c2n1 [PENCICLOVIR] | > 100 µM | 3.9 µM | 12.8 µM | 78.7 µM |  |  |  |  | 
COCCc1cn([C@H]2CC(O)C(CO)S2)c(=O)[nH]c1=O (stereo partly specified) | > 100 µM |  | > 100 µM | > 10 µM |  |  |  |  | 
CCCc1cn([C@H]2CC(O)C(CO)S2)c(=O)[nH]c1=O (stereo partly specified) | > 100 µM | 6.8 µM | > 10 µM | 3 µM | >100 µM |  |  |  | 
C=Cc1cn([C@H]2CC(O)C(CO)S2)c(=O)[nH]c1=O (stereo partly specified) | 93 µM | 1.4 µM | > 100 µM | 1.1 µM | >500 µM |  |  |  | 
O=c1[nH]c(=O)n([C@H]2CC(O)C(CO)S2)cc1[N+](=O)[O-] (stereo partly specified) |  | 18 µM | 27 µM | 13 µM | 476 µM |  |  |  | 
CSCc1cn(C2CC(O)C(CO)S2)c(=O)[nH]c1=O (stereo unspecified) | > 100 µM |  | > 100 µM |  | >500 µM |  |  |  | 
O=c1[nH]c(=O)n([C@H]2CC(O)C(CO)S2)cc1Br (stereo partly specified) | 0.44 µM | 5.3 µM | > 100 µM | > 40 µM | >500 µM |  |  |  | 
O=C1NC(=O)N(C2CC(O)C(CO)S2)C2CCCC12 (stereo unspecified) | > 100 µM |  | > 100 µM | > 40 µM | >500 µM |  |  |  | 
O=c1[nH]c(=O)n(C2CC(O)C(CO)S2)cc1CCCl (stereo unspecified) |  | 0.15 µM | > 100 µM | 0.3 µM | >200 µM |  |  |  | 
O=c1[nH]c(=O)n([C@H]2CC(O)C(CO)S2)cc1Cl (stereo partly specified) | 0.2 µM | > 100 µM | > 100 µM | > 40 µM | 59 µM |  |  |  | 
C#CCc1cn([C@H]2CC(O)C(CO)S2)c(=O)[nH]c1=O (stereo partly specified) | 100 µM | > 100 µM | > 100 µM | 1.4 µM | 492 µM |  |  |  | 
O=c1[nH]c(=O)n([C@H]2CC(O)C(CO)S2)cc1C(F)(F)F (stereo partly specified) | > 10 µM | < 1.6 µM | 15 µM |  | 139 µM |  |  |  | 
N#Cc1cn([C@H]2CC(O)C(CO)S2)c(=O)[nH]c1=O (stereo partly specified) | > 100 µM | > 100 µM | > 100 µM | > 100 µM | >500 µM |  |  |  | 
O=c1[nH]c(=O)n([C@@H]2CC(O)C(CO)S2)cc1[N+](=O)[O-] (stereo partly specified) |  | > 100 µM | > 100 µM | > 100 µM |  |  |  |  | 
COCc1cn(C2CC(O)C(CO)S2)c(=O)[nH]c1=O (stereo unspecified) | > 100 µM | > 10 µM | > 10 µM | > 10 µM |  |  |  |  | 
CCc1cn([C@H]2CC(O)C(CO)S2)c(=O)[nH]c1=O (stereo partly specified) | 138 µM |  |  | 0.99 µM | >100 µM | 0.17 µM | 2 µM |  | 
CC(C)c1cn([C@H]2CC(O)C(CO)S2)c(=O)[nH]c1=O (stereo partly specified) | > 100 µM | 2.2 µM | > 100 µM | 4.1 µM | >500 µM |  |  |  | 
O=c1[nH]c(=O)n([C@H]2C[C@H](O)[C@@H](CO)O2)cc1/C=C/Br [BRIVUDINE] | > 100 µM | 1.4 µM | 10 µM | < 1 µM | >250 µM |  |  |  | 
COC(C)c1cn(C2CC(O)C(CO)S2)c(=O)[nH]c1=O (stereo unspecified) | > 100 µM | > 100 µM | > 100 µM | > 40 µM | >500 µM |  |  |  | 
C/C=C/c1cn([C@H]2CC(O)C(CO)S2)c(=O)[nH]c1=O (stereo partly specified) | > 100 µM | > 2 µM | > 20 µM | 0.46 µM | >100 µM |  |  |  | 

SMILES | IC50 (Human betaherpesvirus 5) | IC50 (Human alphaherpesvirus 1) | IC50 [1] | IC50 (Human alphaherpesvirus 3) | CCID50 (Vero [2]) | IC50 (Vero [3]) | IC50 (Vero [4]) | CCID50 (Vero [5]) | IC50 (MRC5)
O=c1[nH]c(=O)n([C@H]2CC(O)C(CO)S2)cc1C1CC1 (stereo partly specified) | > 100 µM | 1.6 µM | > 100 µM | 0.5 µM | >500 µM |  |  |  | 
O=c1[nH]c(=O)n([C@H]2CC(O)C(CO)S2)cc1C=C(F)F (stereo partly specified) | > 100 µM |  | > 100 µM | > 10 µM | >500 µM |  |  |  | 
Nc1nc2c(ncn2COCCO)c(=O)[nH]1 [ACYCLOVIR] | > 85 µM | 1.8 µM | 1.7 µM |  | >500 µM |  |  |  | 
C=C(C)c1cn([C@H]2CC(O)C(CO)S2)c(=O)[nH]c1=O (stereo partly specified) | > 100 µM | 3.4 µM | > 100 µM | < 40 µM |  |  |  | >500 µM | 
CC(O)c1cn(C2CC(O)C(CO)S2)c(=O)[nH]c1=O (stereo unspecified) | > 100 µM | 40 µM | > 100 µM | 12 µM | >500 µM |  |  |  | 
O=c1[nH]c(=O)n([C@H]2CC(O)C(CO)S2)cc1I (stereo partly specified) | 4 µM | 0.8 µM | 10 µM | 3.5 µM | >100 µM |  |  |  | 
O=c1[nH]c(=O)n(C2CC(O)C(CO)S2)cc1F (stereo unspecified) | > 100 µM | > 10 µM | > 10 µM | > 100 µM | 92 µM |  |  |  | 
CC(=O)c1cn(C2CC(O)C(CO)S2)c(=O)[nH]c1=O (stereo unspecified) | > 100 µM | > 10 µM | > 10 µM | > 10 µM | 351 µM |  |  |  | 
COc1cn(C2CC(O)C(CO)S2)c(=O)[nH]c1=O (stereo unspecified) | > 100 µM | > 100 µM | > 100 µM | > 100 µM |  |  |  |  | 
O=c1[nH]c(=O)n([C@H]2CC(O)C(CO)S2)cc1/C=C/Cl (stereo partly specified) | > 100 µM | 0.5 µM | > 100 µM | > 10 µM | >500 µM |  |  |  | 
O=c1[nH]c(=O)n([C@H]2CC(O)C(CO)S2)cc1CCF (stereo partly specified) | > 100 µM | 0.7 µM | > 100 µM | 0.12 µM | >500 µM |  |  |  | 
O=c1[nH]c(=O)n([C@H]2CC(O)C(CO)S2)cc1C(F)=C(Cl)Cl (stereo partly specified) | > 100 µM | > 50 µM |  | > 100 µM | >500 µM |  |  |  | 
CCC(C)c1cn(C2CC(O)C(CO)S2)c(=O)[nH]c1=O (stereo unspecified) | > 100 µM |  | > 100 µM |  | >500 µM |  |  |  | 
O=c1[nH]c(=O)n([C@@H]2CC(O)C(CO)S2)cc1C(F)(F)F (stereo partly specified) | > 100 µM |  | > 100 µM |  | >500 µM |  |  |  | 
O=c1[nH]c(=O)n([C@H]2CC(O)C(CO)S2)cc1CC(F)(F)F (stereo partly specified) | > 100 µM |  | > 100 µM | > 40 µM | >500 µM |  |  |  | 
C#Cc1cn([C@H]2CC(O)C(CO)S2)c(=O)[nH]c1=O (stereo partly specified) | 9.3 µM | 6.6 µM | > 10 µM | 5.5 µM | 33 µM |  |  |  | 
CCc1cn([C@@H]2CC(O)C(CO)S2)c(=O)[nH]c1=O (stereo partly specified) | > 100 µM |  | > 100 µM | > 100 µM | >100 µM |  |  |  | 
CC(C)(C)c1cn([C@H]2CC(O)C(CO)S2)c(=O)[nH]c1=O (stereo partly specified) | > 100 µM |  | > 100 µM |  | 475 µM |  |  |  | 
O=c1[nH]c(=O)n([C@H]2CC(O)C(CO)S2)cc1C12CC3CC(CC(C3)C1)C2 (stereo partly specified) | > 100 µM | > 100 µM | > 100 µM |  | >125 µM |  |  |  | Toxic
